Biological target: T1, Polyunsaturated fatty acid 5-lipoxygenase (Homo sapiens, UniProt P09917)
T1 sequence (P09917 whole entry): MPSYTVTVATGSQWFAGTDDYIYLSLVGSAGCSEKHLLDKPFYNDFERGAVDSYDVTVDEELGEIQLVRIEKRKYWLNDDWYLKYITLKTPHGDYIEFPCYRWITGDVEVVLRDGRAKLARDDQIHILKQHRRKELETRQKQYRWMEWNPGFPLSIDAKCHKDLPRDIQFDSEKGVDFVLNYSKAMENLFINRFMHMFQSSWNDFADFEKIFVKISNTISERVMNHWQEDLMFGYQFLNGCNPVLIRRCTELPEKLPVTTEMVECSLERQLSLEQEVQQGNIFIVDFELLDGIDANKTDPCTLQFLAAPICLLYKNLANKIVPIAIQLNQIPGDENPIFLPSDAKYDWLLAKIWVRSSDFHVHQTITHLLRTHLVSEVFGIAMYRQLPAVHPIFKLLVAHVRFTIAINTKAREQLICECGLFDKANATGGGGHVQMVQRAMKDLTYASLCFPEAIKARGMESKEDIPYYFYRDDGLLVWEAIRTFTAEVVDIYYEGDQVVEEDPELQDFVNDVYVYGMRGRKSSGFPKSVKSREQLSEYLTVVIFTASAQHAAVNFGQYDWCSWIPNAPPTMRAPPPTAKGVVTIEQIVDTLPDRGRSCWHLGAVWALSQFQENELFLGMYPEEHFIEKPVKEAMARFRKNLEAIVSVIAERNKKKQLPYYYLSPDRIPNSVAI
Test: Inhibition of lipoxygenase 5 product formation from endogenous substrate in Calcium and ionophore-stimulated polymorphonuclear leukocyte

Row | SMILES | IC50 [nM]
1 | CC(=O)O[C@@H]1CC[C@]2(C)C3=CC=C4[C@@H]5[C@@H](C)[C@H](C)CC[C@]5(C)CC[C@@]4(C)[C@]3(C)CC[C@H]2[C@@]1(C)C(=O)O | 750
2 | C[C@H]1[C@H](C)CC[C@]2(C)CC[C@]3(C)C(=CC(=O)[C@@H]4[C@@]5(C)CC[C@@H](O)[C@](C)(C(=O)O)[C@@H]5CC[C@]43C)[C@H]12 [11-KETO BOSWELLIC ACID] | 3000
3 | CC(=O)O[C@@H]1CC[C@@]2(C)[C@@H](CC[C@]3(C)[C@@H]2C(=O)C=C2[C@@H]4[C@@H](C)[C@H](C)CC[C@]4(C)CC[C@]23C)[C@@]1(C)C(=O)O [AKBA] | 2700

Source: ChEMBL document CHEMBL1155562, “Workup-dependent formation of 5-lipoxygenase inhibitory boswellic acid analogues” (J Nat Prod, 2000)
